Reference: patent US8921307B2, “Synthetic linear apelin mimetics for the treatment of heart failure” (priority 2012, dated 2014)
Where a SMILES comes first, the peptide text is derived from it. [ ]: non-standard residue; d: D form. Phe(3,4-Cl2) = N[C@@H](Cc1ccc(Cl)c(Cl)c1)C(=O)O; 2Nal = N[C@@H](Cc1ccc2ccccc2c1)C(=O)O; dTic = O=C(O)[C@H]1Cc2ccccc2CN1; Cha = N[C@@H](CC1CCCCC1)C(=O)O; pGlu = O=C1CC[C@@H](C(=O)O)N1; dNle = CCCC[C@@H](N)C(=O)O; Aib = CC(C)(N)C(=O)O

Experiments:
hAPJ = target: T1, hAPJ (Homo sapiens, UniProt P35414); assay: hAPJ Calcium Flux Assay; type: cell-based; details: Chem-5 APJ stable cells, FLIPR calcium flux stimulation; read-out: hAPJ Ca^2+ Flux EC50
T1 sequence (P35414 1-380): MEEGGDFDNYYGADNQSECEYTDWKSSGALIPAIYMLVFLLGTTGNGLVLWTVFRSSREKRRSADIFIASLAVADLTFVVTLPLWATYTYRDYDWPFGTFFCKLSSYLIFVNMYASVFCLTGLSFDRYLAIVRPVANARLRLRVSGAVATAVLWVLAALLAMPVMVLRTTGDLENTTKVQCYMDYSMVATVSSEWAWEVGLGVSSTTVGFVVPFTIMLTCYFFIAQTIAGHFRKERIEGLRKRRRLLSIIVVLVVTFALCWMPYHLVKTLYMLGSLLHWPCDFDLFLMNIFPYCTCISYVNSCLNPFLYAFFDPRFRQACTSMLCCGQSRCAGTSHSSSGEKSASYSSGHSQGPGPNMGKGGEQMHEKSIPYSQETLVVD
Experimental: Chem-5 APJ stable cells (Millipore # HTS068C) were plated in 384-well format with 10,000 cells/well in 25 ul growth media, then grown 24 hours in a 37° C. tissue culture incubator. One hour before the assay, 25 ul/well FLIPR Calcium 4 dye (Molecular Devices R8142) with 2.5 mM probenecid was added, and cells were incubated one hour in a 37° C. tissue culture incubator. Peptides were solubilized in HBSS, HEPES & 0.1% BSA buffer, and serially-diluted 10-fold, from 50 uM to […], in triplicate. FLIPR Tetra was used to add peptide to the cells with dye (1:5, for final peptide concentrations ranging from 10 uM to […]). FLIPR dye inside the cells emitted fluorescence after binding to calcium, while fluorescence from outside the cells was masked. Fluorescence was measured using 470-495 excitation and 515-575 emission wavelengths on the FLIPR Tetra. Readings were done for 3 minutes total, beginning 10 seconds before the peptide addition. Maximum-minimum values were calculated and plotted for each peptide concentration, and GraphPad prism software was used to calculate EC50 values at the curve inflection points, for calcium flux stimulation by peptides.

[1] = Surrogate Activity-Based Plasma Stability Assay; type: in vitro ADME; details: rat, Surrogate activity-based Plasma stability t½
Experimental: Stability half-life was then calculated by the formula, t½=0.693÷k Surrogate Activity-Based Plasma Stability Assay: […]
2) Calculate slope of value above and […]

| Compound | EC50 (hAPJ) | half-life [1] |
| --- | --- | --- |
| CCCC[C@@H](NC(=O)[C@@H]1CCCN1C(=O)CNC(=O)[C@H](CCCCN)NC(=O)[C@H](Cc1c[nH]cn1)NC(=O)[C@@H](C)NC(=O)[C@H](CC(C)C)NC(=O)[C@H](CCCNC(=N)N)NC(=O)[C@@H]1CCCN1C(=O)[C@@H](N)CCCNC(=N)N)C(=O)N[C@H](Cc1ccccc1)C(=O)O [Example 50, H-R-P-R-L-a-H-K-G-P-nle-f-OH] (H-RPRL[dA]HKGP[dNle][dF]-OH) | 1.4 nM | 0.183 h |
| CCCC[C@@H](NC(=O)[C@@H]1CCCN1C(=O)CNC(=O)[C@H](CCCCN)NC(=O)[C@H](Cc1c[nH]cn1)NC(=O)[C@@H](C)NC(=O)[C@H](Cc1ccc2ccccc2c1)NC(=O)[C@H](CCCNC(=N)N)NC(=O)[C@@H]1CCCN1C(=O)[C@H](CCCNC(=N)N)NC(=O)[C@@H]1CCC(=O)N1)C(=O)N[C@H](C)C(=O)N[C@H](Cc1ccccc1)C(=O)O [Example 25, pE-R-P-R-(2-Nal)-a-H-K-G-P-nle-a-f-OH] ([pGlu]RPR[2Nal][dA]HKGP[dNle][dA][dF]-OH) | 69.2 nM | 4.03 h |
| CCCC[C@@H](NC(=O)[C@@H]1CCCN1C(=O)CNC(=O)[C@H](CCCCN)NC(=O)[C@H](Cc1c[nH]cn1)NC(=O)[C@@H](C)NC(=O)[C@H](CC1CCCCC1)NC(=O)[C@H](CCCNC(=N)N)NC(=O)[C@@H]1CCCN1C(=O)[C@H](CCCNC(=N)N)NC(=O)[C@@H]1CCC(=O)N1)C(=O)N[C@H](C)C(=O)N[C@H](Cc1ccccc1)C(=O)O [Example 23, pE-R-P-R-Cha-a-H-K-G-P-nle-a-f-OH] ([pGlu]RPR[Cha][dA]HKGP[dNle][dA][dF]-OH) | 2.8 nM | 2.08 h |
| CCCC[C@@H](NC(=O)[C@@H]1CCCN1C(=O)CNC(=O)[C@H](CCCCN)NC(=O)[C@H](Cc1c[nH]cn1)NC(=O)[C@@H](CC)NC(=O)[C@H](CC(C)C)NC(=O)[C@H](CCCNC(=N)N)NC(=O)[C@@H]1CCCN1C(=O)[C@H](CCCNC(=N)N)NC(=O)[C@@H]1CCC(=O)N1)C(=O)N[C@H](C)C(=O)N[C@H](Cc1ccccc1)C(=O)O [Example 44, pE-R-P-R-L-abu-H-K-G-P-nle-a-f-OH] | 3 nM | 9.25 h |
| CCCC[C@@H](NC(=O)[C@@H]1CCCN1C(=O)CNC(=O)[C@H](CCCCN)NC(=O)[C@H](Cc1c[nH]cn1)NC(=O)[C@@H](CCCCN)NC(=O)[C@H](CC(C)C)NC(=O)[C@H](CCCNC(=N)N)NC(=O)[C@@H]1CCCN1C(=O)[C@H](CCCNC(=N)N)NC(=O)[C@@H]1CCC(=O)N1)C(=O)N[C@H](C)C(=O)N[C@H](Cc1ccccc1)C(=O)O [Example 11, pE-R-P-R-L-k-H-K-G-P-nle-a-f-OH] ([pGlu]RPRL[dK]HKGP[dNle][dA][dF]-OH) | 1060 nM | > 16.7 h |
| CCCC[C@@H](NC(=O)[C@@H]1CCCN1C(=O)CNC(=O)[C@H](CCCCN)NC(=O)[C@H](CC(C)C)NC(=O)[C@@H](C)NC(=O)[C@H](CC(C)C)NC(=O)[C@H](CCCNC(=N)N)NC(=O)[C@@H]1CCCN1C(=O)[C@H](CCCNC(=N)N)NC(=O)[C@@H]1CCC(=O)N1)C(=O)N[C@H](C)C(=O)N[C@H](Cc1ccccc1)C(=O)O [Example 47, pE-R-P-R-L-a-L-K-G-P-nle-a-f-OH] ([pGlu]RPRL[dA]LKGP[dNle][dA][dF]-OH) | 4.4 nM | > 16.7 h |
| CCCC[C@@H](NC(=O)[C@@H]1CCCN1C(=O)CNC(=O)[C@H](CCCCN)NC(=O)[C@H](Cc1c[nH]cn1)NC(=O)[C@@H](C)NC(=O)[C@H](CC(C)C)NC(=O)[C@H](CCCNC(=N)N)NC(=O)[C@@H]1CCCN1C(=O)[C@H](CCCNC(=N)N)NC(=O)[C@@H]1CCC(=O)N1)C(=O)N[C@H](C)C(=O)NCCc1ccccc1 [Example 36, pE-R-P-R-L-a-H-K-G-P-nle-a-NH(Phenethyl)] | 16.2 nM | 2.02 h |
| CCCC[C@@H](NC(=O)[C@@H]1CCCN1C(=O)CNC(=O)[C@@H](CCCCN)NC(=O)C(C)(C)NC(=O)[C@H](CO)NC(=O)[C@H](CC(C)C)NC(=O)[C@H](CCCNC(=N)N)NC(=O)[C@@H]1CCCN1C(=O)[C@H](CCCNC(=N)N)NC(=O)[C@@H]1CCC(=O)N1)C(=O)N[C@H](C)C(=O)N[C@H](Cc1ccccc1)C(=O)O [Example 5, pE-R-P-R-L-S-Aib-k-G-P-nle-a-f-OH] ([pGlu]RPRLS[Aib][dK]GP[dNle][dA][dF]-OH) | 79.9 nM | > 16.7 h |
| CCCC[C@H](NC(=O)[C@@H]1CCCN1C(=O)CNC(=O)[C@H](CCCCN)NC(=O)[C@H](Cc1c[nH]cn1)NC(=O)[C@@H](C)NC(=O)[C@H](CC(C)C)NC(=O)[C@H](CCCNC(=N)N)NC(=O)[C@@H]1CCCN1C(=O)[C@H](CCCNC(=N)N)NC(=O)[C@@H]1CCC(=O)N1)C(=O)N[C@H](C)C(=O)N[C@@H](Cc1ccccc1)C(=O)O [Example 39, pE-R-P-R-L-a-H-K-G-P-Nle-a-F-OH] | 4.5 nM | 14.8 h |
| CCCC[C@@H](NC(=O)[C@@H]1CCCN1C(=O)CNC(=O)[C@H](CCCCN)NC(=O)[C@H](Cc1c[nH]cn1)NC(=O)[C@@H](C)NC(=O)[C@H](CC(C)C)NC(=O)[C@H](CCCNC(=N)N)NC(=O)[C@@H]1CCCN1C(=O)[C@H](CCCNC(=N)N)NC(=O)[C@@H]1CCC(=O)N1)C(=O)N[C@H](C)C(=O)N1Cc2ccccc2C[C@@H]1C(=O)O [Example 26, pE-R-P-R-L-a-H-K-G-P-nle-a-tic-OH] ([pGlu]RPRL[dA]HKGP[dNle][dA][dTic]-OH) | 1.7 nM | 16.4 h |
| CCCC[C@@H](NC(=O)[C@@H]1CCCN1C(=O)CNC(=O)[C@H](CCCCN)NC(=O)[C@H](Cc1c[nH]cn1)NC(=O)[C@@H](C)NC(=O)[C@H](CC(C)C)NC(=O)[C@H](CCCNC(=N)N)NC(=O)[C@@H]1CCCN1C(=O)[C@H](CCCNC(=N)N)NC(=O)[C@@H]1CCC(=O)N1)C(=O)NCCc1ccccc1 [Example 32, pE-R-P-R-L-a-H-K-G-P-nle-NH(Phenethyl)] |  | 0.795 h |
| CCCC[C@@H](NC(=O)[C@@H]1CCCN1C(=O)CNC(=O)[C@H](CCCCN)NC(=O)[C@H](Cc1c[nH]cn1)NC(=O)[C@@H](C)NC(=O)[C@H](CC(C)C)NC(=O)[C@H](CCCNC(=N)N)NC(=O)[C@@H]1CCCN1C(=O)[C@H](CCCNC(=N)N)NC(=O)[C@@H]1CCC(=O)N1)C(=O)N[C@H](CCCNC(=N)N)C(=O)N[C@H](Cc1ccccc1)C(=O)O [Example 20, pE-R-P-R-L-a-H-K-G-P-nle-r-f-OH] ([pGlu]RPRL[dA]HKGP[dNle][dR][dF]-OH) | 922 nM | > 16.7 h |
| CCCC[C@@H](NC(=O)[C@@H]1CCCN1C(=O)CNC(=O)[C@H](CCCCN)NC(=O)[C@@H](C)NC(=O)[C@H](CO)NC(=O)[C@@H](CC(C)C)NC(=O)[C@H](CCCNC(=N)N)NC(=O)[C@@H]1CCCN1C(=O)[C@H](CCCNC(=N)N)NC(=O)[C@@H]1CCC(=O)N1)C(=O)N[C@H](C)C(=O)N[C@H](Cc1ccccc1)C(=O)O [Example 2, pE-R-P-R-(D-Leu)-S-a-K-G-P-nle-a-f-OH] ([pGlu]RPR[dL]S[dA]KGP[dNle][dA][dF]-OH) | 386 nM | > 16.7 h |
| CCCC[C@@H](NC(=O)[C@@H]1CCCN1C(=O)CNC(=O)[C@H](CCCCN)NC(=O)C(C)(C)NC(=O)[C@H](CO)NC(=O)[C@H](CC(C)C)NC(=O)[C@H](CCCNC(=N)N)NC(=O)[C@@H]1CCCN1C(=O)[C@H](CCCNC(=N)N)NC(=O)[C@@H]1CCC(=O)N1)C(=O)N[C@H](C)C(=O)N[C@H](Cc1ccccc1)C(=O)O [Example 40, pE-R-P-R-L-S-Aib-K-G-P-nle-a-f-OH] ([pGlu]RPRLS[Aib]KGP[dNle][dA][dF]-OH) | 2 nM | > 16.7 h |
| CCCC[C@@H](NC(=O)[C@@H]1CCCN1C(=O)CNC(=O)[C@H](CCCCN)NC(=O)[C@H](Cc1c[nH]cn1)NC(=O)[C@@H](C)NC(=O)[C@H](CC(C)C)NC(=O)[C@H](CCCNC(=N)N)NC(=O)[C@@H]1CCCN1C(=O)[C@H](CCCNC(=N)N)NC(=O)[C@@H]1CCC(=O)N1)C(=O)N1CCC[C@@H]1C(=O)N[C@H](Cc1ccccc1)C(=O)O [Example 13, pE-R-P-R-L-a-H-K-G-P-nle-p-f-OH] ([pGlu]RPRL[dA]HKGP[dNle][dP][dF]-OH) | 1.1 nM | > 16.7 h |
| CCCC[C@@H](NC(=O)[C@@H]1CCCN1C(=O)CNC(=O)[C@H](CCCCN)NC(=O)[C@H](Cc1c[nH]cn1)NC(=O)[C@@H](C)NC(=O)[C@H](Cc1ccc(Cl)c(Cl)c1)NC(=O)[C@H](CCCNC(=N)N)NC(=O)[C@@H]1CCCN1C(=O)[C@H](CCCNC(=N)N)NC(=O)[C@@H]1CCC(=O)N1)C(=O)N[C@H](C)C(=O)N[C@H](Cc1ccccc1)C(=O)O [Example 24, pE-R-P-R-(3,4-Cl2-F)-a-H-K-G-P-nle-a-f-OH] ([pGlu]RPR[Phe(3,4-Cl2)][dA]HKGP[dNle][dA][dF]-OH) | 13.8 nM | 0.958 h |
